# Measured values reported in patent publication US20070042014A1, “Combination of a serotonin reuptake inhibitor and loxapine” (H. Lundbeck A/S, priority 2003, published 2007).
# System: 5-HT levels in ventral hippocampus
# Assay: Microdialysis of brain serotonin (5-HT) levels in ventral hippocampus of rats
# Assay type: in vivo, rat
# Conditions: loxapine alone; male Wistar rats
# Procedure: Male albino rats of a Wistar-derived strain (285-320 g; Harlan, Zeist, The Netherlands) were used for the experiments. Upon surgery, rats were housed individually in plastic cages (35×35×40 cm), and had free access to food and water. Animals were kept on a 12 h light schedule (light on 7:00 a.m.). The experiments are concordant with the declarations of Helsinki and were approved by the animal care committee of the faculty of mathematics and natural science of the University of Groningen.
# Preceding surgery rats were anaesthetised using isoflurane (O2/N2O; 300/300 ml/min). Lidocaine-HCl, 10% (m/v) was used for local anaesthesia.
# Rats were allowed to recover for at least 24 h. […]
# Twenty-μl microdialysate samples were injected via an autoinjector (CMA/200 refrigerated microsampler, CMA, Sweden) onto a 100×2.0 mm C18 Hypersil 3 μm column (Bester, Amstelveen, the Netherlands) and separated with a mobile phase consisting of 5 g/L di-ammoniumsulfate, 500 mg/L EDTA, 50 mg/L heptane sulphonic acid, 4% methanol v/v, and 30 μl/L of triethylamine, pH 4.65 at a flow of 0.4 ml/min (Shimadzu LC-10 AD). 5-HT was detected amperometrically at a glassy carbon electrode at 500 mV vs Ag/AgCl (Antec Leyden, Leiden, The Netherlands). […]
smiles,measurement,value
CN1CCN(C2=Nc3ccccc3Oc3ccc(Cl)cc32)CC1 [loxapine],"effect on 5-HT levels in ventral hippocampus (microdialysis, % of control level)",no significant effect
